The record followed here is ChEMBL document CHEMBL3745657, “Core chemotype diversification in the HIV-1 entry inhibitor class using field-based bioisosteric replacement” (Bioorg Med Chem Lett, 2016).

What all share (assay type): functional, organism-based
The subject of test [1] is Human immunodeficiency virus 1. The experiment in a line: Antiviral activity against recombinant HIV-1 NL4-3 expressing HIV-1 JR-CSF envelope infected in U87.CD4.CCR5 cells assessed as inhibition of Env mediated cell entry by HIV-1 single round infection assay. Conditions: Human immunodeficiency virus 1, NL4-3, U87/CD4/CCR5; call rule not given here.
The test system of test [2] is Human immunodeficiency virus 1. The experiment in a line: Antiviral activity against recombinant HIV-1 NL4-3 expressing AMLV envelope infected in U87.CD4.CCR5 cells assessed as inhibition of Env mediated cell entry by HIV-1 single round infection assay.
Test [3] deals with Human immunodeficiency virus 1. The experiment in a line: Antiviral activity against recombinant HIV-1 NL4-3 expressing HIV-1 B41 envelope infected in U87.CD4.CCR5 cells assessed as inhibition of Env mediated cell entry by HIV-1 single round infection assay. Conditions: Human immunodeficiency virus 1, NL4-3, U87/CD4/CCR5.
Test [4] deals with Human immunodeficiency virus 1. The experiment in a line: Antiviral activity against recombinant HIV-1 NL4-3 expressing HIV-1 HxBc2 envelope infected in U87.CD4.CXCR4 cells by HIV-1 single round infection assay. Conditions: Human immunodeficiency virus 1, NL4-3, U87.CD4.CXCR4.

As to `COc1cnc(Cl)c2[nH]cc(C(=O)C(=O)N3CC4CN(C(=O)c5ccccc5)CC4C3)c12` (centres undefined), the IC50 in test [1] (read-out: IC50) came out at 100 µM.
Take `COc1cnc(-n2cnc(C)n2)c2[nH]cc(C(=O)C(=O)N3CC4CN(C(=O)c5ccccc5)CC4C3)c12` (centres undefined): the IC50 was 0.001 µM in test [1] (read-out: IC50) and 0.000794 µM in test [1] (read-out: pIC50 (converted)).
`COc1cnc(-n2cnc(C)n2)c2[nH]cc(C(=O)C(=O)N3CC4CN(C(=O)C5=CCCCC5)CC4C3)c12` (centres undefined): in test [1] (read-out: IC50), the IC50 came to 0.002 µM.
`COc1cnc(-n2cnc(C)n2)c2[nH]cc(C(=O)C(=O)N3CCC4(CCN(C(=O)c5ccccc5)CC4)C3)c12`: the IC50 result in test [2] was “Not Active”; in test [3], 3.9 µM; in test [4] it was 36 µM; in test [1] (read-out: IC50) it was 13 µM; in test [1] (read-out: pIC50 (converted)), 12.9 µM.
Regarding `COc1cnc(-n2cnc(C)n2)c2[nH]cc(C(=O)C(=O)NC3C4CN(C(=O)c5ccccc5)CC43)c12` (centres undefined), the IC50 result in test [2] is “Not Active”; in test [3] it was 0.085 µM; in test [4] it was 0.069 µM; in test [1] (read-out: IC50), 0.096 µM.
In the case of `COc1cnc(-n2cnc(C)n2)c2[nH]cc(C(=O)C(=O)N3CC(CCC(=O)c4ccccc4)C3)c12`, the IC50 result in test [2] is “Not Active”; in test [3], 0.007 µM; in test [4], 0.009 µM; in test [1] (read-out: IC50) it was 0.003 µM.
The like results for `COc1cnc(-n2cnc(C)n2)c2[nH]cc(C(=O)C(=O)N3CC4C=NN(c5ccccc5)C4C3)c12` (centres undefined) were, in that order, “Not Active”, 0.006 µM, 0.08 µM and 0.008 µM.
The matching figures for `COc1cnc(-n2cnc(C)n2)c2[nH]cc(C(=O)C(=O)N3CC=C(CNC(=O)c4ccccc4)CC3)c12`: “Not Active”, 0.35 µM, 0.38 µM and 0.224 µM.
The matching figures for `COc1cnc(-n2cnc(C)n2)c2[nH]cc(C(=O)NCC3CN(C(=O)c4ccccc4)C3)c12`: “Not Active”, 3.8 µM, 3.8 µM and 2.5 µM.
